According to patent publication US8901314B2, “Substituted pyrazoles as N-type calcium channel blockers” (Janssen Pharmaceutica NV, priority 2012, dated 2014):

Columns and labels:
[1] = target: α1B (Cav2.2), β3 and α2δ subunits of the N-type calcium channel (stable HEK cell line) (Rattus norvegicus, UniProt Q02294); assay: Calcium-dye indicator assay (FDSS, KCl depolarization); format: cell-based; details: calcium mobilization response to 50 mM KCl; six-point concentration-response
Procedure: A stable cell line (HEK parent) co-expressing the α1B (Cav2.2), β3 and α2δ subunits of the N-type calcium channel subunits was used. These cells were routinely grown as monolayers in low glucose-containing Dulbecco's Modified Eagle Medium supplemented with 10% FBS, 2 mM L-glutamine, 100 I.U./mL penicillin, 100 μg/mL streptomycin, 400 μg/mL G418 and 200 μg/mL Zeocin (split ratio=1:5). Cells were maintained in 5% CO2 at 37° C. Compounds of Formula (I) were prepared as 10 mM stocks in DMSO from neat compound, if available. Otherwise, the 5 or 10 mM DMSO stock solutions provided in-house were used.
Calcium mobilization responses to KCl depolarization were evaluated by measuring the intensity of calcium-mediated fluorescent signal in the presence of BD Calcium Assay Dye (BD Biosciences, Franklin Lakes, N.J., U.S.A.), utilizing a Functional Drug Screening System (FDSS) by Hamamatsu Corporation (Bridgewater, N.J., U.S.A.).
Twenty-four hours prior to assay, cells were seeded in clear-base poly-D-lysine coated 384-well plates (BD Biosciences) at a density of 5,000 cells per well in culture medium and grown overnight in 5% CO2 at 37° C. On the day of assay growth media were removed and cells were loaded with BD calcium assay dye (BD Biosciences) for 35 min at 37° C. under 5% CO2 and then for 25 min at room temperature. Utilizing the FDSS, cells were exposed to representative compounds of Formula (I) at varying concentrations and intracellular calcium was measured for 5 min prior to the addition of 50 mM KCl for an additional 3 min of measurement.
Maximal fluorescence intensity (FI) achieved upon addition of 50 mM KCl was exported from the FDSS software and further analyzed using GraphPad Prism 4 (Graph Pad Software Inc., CA, U.S.A.). Data were normalized to the maximum average counts from quadruplicate wells for each condition in the presence of 50 mM KCl and to the minimum average counts in the presence of buffer. Theoretical curves were generated using nonlinear regression curve-fitting analysis of either sigmoidal concentration-response or sigmoidal concentration-response (variable slope), and the IC50 values with the best-fit dose curve determined by GraphPad Prism were reported.

[2] = tested on: Cav2.2 (N-type calcium channel; α1B, α2δ and β3 subunits stably expressed in HEK293 cells); assay: Automated electrophysiology assay (QPatch-HT patch clamp); format: cell-based; details: 0.1 μM; for QPatch % Inhibition, High Freq: high frequency stimulation (15th pulse of 5 Hz train); for QPatch % Inhibition, Low Freq: low frequency stimulation (1st pulse of train)
Procedure: The Cav2.2 (α1B) subunit (GenBank accession no. AAO53230; supplied by Lipscombe's laboratory at Brown University) was subcloned into pcDNA3.1, whereas the α2δ (M86621) and β3 (M88751) subunits were subcloned into pBudCE4.1 vectors. Stable cell lines expressing all three subunits were generated according to the following procedure: 1) HEK293 cells were transfected with α2δ−1/β3 expression constructs resulting in a stable cell line expressing α2δ−1 and β3 subunits that were selected under 200 μg/mL of Zeocin; 2) a stable cell line expressing α2δ−1/β3 subunits in high quantity as evidenced in its Western blots was isolated from the colony and purified; 3) this cell line was further transfected with Cav2.2 expression constructs, from which cells were subsequently selected under 400 μg/mL G418 and 200 μg/mL Zeocin; 4) these cells were clonally isolated, expanded and screened by Western blot analysis for expressing all three subunits
Cultures of cells stably expressing Cav2.2 were maintained at 37° C. in low glucose-containing Dulbecco's Modified Eagle medium (low glucose) under a 5% CO2 atmosphere. The medium was supplemented with 10% fetal bovine serum, 2 mM L-glutamine, 100 IU/mL penicillin, […] streptomycin, 400 μg/mL G418 and 200 μg/mL Zeocin.
High-throughput automated patch clamp system experiments were carried out using instruments (QPatch-HT) available from Sophion Biosciences, Inc. North Brunswick, N.J. Cells were grown in T175 flasks to 50%-90% confluence were enzymatically treated with Deatchin (Genlantis, San Diego, Calif., U.S.A.), centrifuged, rinsed and resuspended in 293 SFM II media (Life Technologies, Grand Island, N.Y., U.S.A.) supplemented with 25 mM HEPES (Sigma-Aldrich, St. Louis, Mo., U.S.A.) to a concentration of 2−3×10^6 cells/mL. Cells were added to automated cell preparation station on the QPatch-HT (Sophion Biosciences, North Brunswick, N.J., U.S.A.) and following a 10- to 30-min recovery period with gentle stirring, the assay protocol was initiated. During the automated cell preparation, cells were collected, centrifuged and resuspended in an extracellular (EC) solution containing 132 mM NaCl, 1.8 mM CaCl2, 5.4 mM KCl, 0.8 mM MgCl2, 10 mM glucose, and 10 mM HEPES (pH=7.4), adjusted with sucrose to 315 m0sm. The QPlate was primed with an intracellular solution containing 135 CsCl, 10 mM EGTA, 4 MgATP, 0.3 NaGTP, and 20 mM HEPES (pH=7.2), adjusted to approximately 290 m0sm with deionized water and the EC solution. Cells were added to the prepared QPlate wells by robotic pipettes of the QPatch-HT.
For cells determined to be in stable whole-cell patch clamp, the EC solution was replaced with a barium (Ba)/triethylammonium (TEA) solution containing 140 mM TEA-Cl, 10 mM BaCl2, 0.8 mM MgCl2, 10 mM glucose, and 10 mM HEPES (pH=7.4). High (40 mM) BaCl2 concentrations were made with adjustments of TEA-Cl (90 mM) to maintain the osmolarity. From a resting potential of −80 mV, a train of depolarizing pulses (15 pulses at 5 Hz, +20 mV) was delivered to the cell once every 30 sec for eight trains (4 min total), and the resulting currents were measured during a control period (no compound). This protocol was repeated for each subsequent addition of control buffer with or without compound (three periods total, each with four trains). The current generated in the 1st and 15th pulses of the last train of each period in the presence of each drug concentration was normalized to the current generated during the control period at the respective pulses (representing low- and high frequency stimulation, respectively). Data from both the second and third drug application period were analyzed for each cell. A final addition of Ba/TEA solution containing 60-100 uM CdCl2 was made to block all N-type current and “zero” the currents for each cell. A buffer/compound additions were made using a “spitting” feature of the QPatch-HT, which added three repretitions of 5 μL solution at the beginning of each recording period.

SMILES | IC50 [1] [nM] | QPatch % Inhibition, High Freq [2] [%] | QPatch % Inhibition, Low Freq [2] [%]
COc1cccc(-c2cc(C3CC(C)(C)OC(C)(C)C3)nn2-c2ccccc2OC)c1 [Compound 20, 1-(2-Methoxyphenyl)-5-(3-methoxyphenyl)-3-(2,2,6,6-tetramethyltetrahydro-2H-pyran-4-yl)-1H-pyrazole] | 5.5 | 45 | 38
COc1ccccc1-n1nc([C@H]2C[C@@H](C)O[C@@H](C)C2)cc1-c1ccc(Cl)cc1 [Compound 63, 5-(4-Chlorophenyl)-3-[(2R,4r,6S)-2,6-dimethyltetrahydro-2H-pyran-4-yl]-1-(2-methoxyphenyl)-1H-pyrazole] | 2.5 | 74.5 | 60
COc1ccccc1-n1nc(C2CC(C)(C)OC(C)(C)C2)cc1-c1ccccc1N [Compound 22, 2-[1-(2-Methoxyphenyl)-3-(2,2,6,6-tetramethyltetrahydro-2H-pyran-4-yl)-1H-pyrazol-5-yl]-aniline] | 6 | 0 | 0
COc1ccccc1-n1nc(C2CC(C)(C)OC(C)(C)C2)cc1-c1ccc(SC)cc1 [Compound 6, 1-(2-Methoxyphenyl)-5-[4-(methylsulfanyl)phenyl]-3-(2,2,6,6-tetramethyltetrahydro-2H-pyran-4-yl)-1H-pyrazole] | 1.1 | 48 | 48
COc1ccccc1-n1nc(C2CC(C)(C)OC(C)(C)C2)cc1-c1ccc(C)cc1 [Compound 10, 1-(2-Methoxyphenyl)-5-(4-methylphenyl)-3-(2,2,6,6-tetramethyltetrahydro-2H-pyran-4-yl)-1H-pyrazole] | 2 | 38 | 46
CCOc1ccc(-c2cc(C3CC(C)(C)OC(C)(C)C3)nn2-c2ccccc2OC)cc1 [Compound 9, 5-(4-Ethoxyphenyl)-1-(2-methoxyphenyl)-3-(2,2,6,6-tetramethyltetrahydro-2H-pyran-4-yl)-1H-pyrazole] | 2.3 | 47.5 | 34
COc1ccccc1-n1nc(C2C[C@@H](C)O[C@H](C)C2)cc1-c1ccc(Cl)cc1 (relative stereo) [Compound 61, 5-(4-Chlorophenyl)-3-[(trans)-2,6-dimethyltetrahydro-2H-pyran-4-yl]-1-(2-methoxyphenyl)-1H-pyrazole] | 1.5 | 62 | 30
COc1ccccc1-n1nc(C2CC(C)(C)OC(C)(C)C2)cc1-c1ccc(C(C)=O)cc1 [Compound 12, 1-{4-[1-(2-Methoxyphenyl)-3-(2,2,6,6-tetramethyltetrahydro-2H-pyran-4-yl)-1H-pyrazol-5-yl]phenyl}ethanone] | 2.6 | 41 | 30
COc1ccccc1-n1nc(C2=CC(C)(C)OC(C)(C)C2)cc1-c1ccc(Cl)cc1 [Compound 95, 5-(4-Chlorophenyl)-1-(2-methoxyphenyl)-3-(2,2,6,6-tetramethyl-3,6-dihydro-2H-pyran-4-yl)-1H-pyrazole] | 3.4 | 26 | 14
COc1ccccc1-n1nc(C2CC(C)(C)OC(C)(C)C2)cc1-c1ccc2c(c1)OCO2 [Compound 4, 5-(1,3-Benzodioxol-5-yl)-1-(2-methoxyphenyl)-3-(2,2,6,6-tetramethyltetrahydro-2H-pyran-4-yl)-1H-pyrazole] | 1 | 39 | 35
COc1ccccc1-n1nc(C2CC(C)(C)OC(C)(C)C2)cc1-c1ccc(C(C)(C)C)cc1 [Compound 15, 5-(4-tert-Butylphenyl)-1-(2-methoxyphenyl)-3-(2,2,6,6-tetramethyltetrahydro-2H-pyran-4-yl)-1H-pyrazole] | 4.9 | 37 | 20
COc1ccccc1-n1nc(C2CC(C)(C)OC(C)(C)C2)cc1-c1ccc(C)o1 [Compound 28, 1-(2-Methoxyphenyl)-5-(5-methylfuran-2-yl)-3-(2,2,6,6-tetramethyltetrahydro-2H-pyran-4-yl)-1H-pyrazole] | 17 | −5 | −18
COc1ccc(-c2cc(C3CC(C)(C)OC(C)(C)C3)nn2-c2ccccc2OC)cc1 [Compound 5, 1-(2-Methoxyphenyl)-5-(4-methoxyphenyl)-3-(2,2,6,6-tetramethyltetrahydro-2H-pyran-4-yl)-1H-pyrazole] | 1.3 | 67 | 59
COc1ccccc1-n1nc(C2CC(C)(C)OC(C)(C)C2)cc1-c1cc(C)cs1 [Compound 18, 1-(2-Methoxyphenyl)-5-(4-methylthiophen-2-yl)-3-(2,2,6,6-tetramethyltetrahydro-2H-pyran-4-yl)-1H-pyrazole] | 5.3 | 16 | −23
CC1(C)CC(c2cc(-c3ccc(Cl)cc3)n(-c3ccccc3N)n2)CC(C)(C)O1 [Compound 68, 2-[5-(4-Chlorophenyl)-3-(2,2,6,6-tetramethyltetrahydro-2H-pyran-4-yl)-1H-pyrazol-1-yl]aniline] | 20 | 14 | −9
COc1ccccc1-n1nc([C@H]2CCO[C@@H](C(C)C)C2)cc1-c1ccc(Cl)cc1 (relative stereo) [Compound 64, 5-(4-Chlorophenyl)-1-(2-methoxyphenyl)-3-[(cis)-2-(1-methylethyl)tetrahydro-2H-pyran-4-yl]-1H-pyrazole] | 7.2 | 55 | 18
